Values after ≈ are worked out from the molar mass of the structure shown. Where two headings read alike, the source gives them in different places.
Assays:
Test in all cases: in vitro antibacterial MIC, agar plate dilution
Type in all cases: cell-based
[1] = system: Proteus rettgeri IO 83-21; details: Providencia rettgeri, IO8321, 18 h, 35° C., read-out: MIC
Procedure, shortened: (§1)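 MIC, mcg/ml: lowest concentration with no visible growth after 18 h incubation at 35° C. Mueller-Hinton agar dilution plates; ~10^4 CFU inoculum via Steers replicating device.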

[2] = system: Streptococcus faecalis VGH 84-65; details: Enterococcus faecalis, VGH8465, 18 h, 35° C., read-out: MIC
Procedure, shortened: as §1

[3] = system: Klebsiella pneumoniae IO 83-5; details: Klebsiella pneumoniae, IO835, 18 h, 35° C., read-out: MIC
Procedure, shortened: as §1

[4] = system: Morganella morganii MOR 84-45; details: Morganella morganii, MOR8445, 18 h, 35° C., read-out: MIC
Procedure, shortened: as §1

[5] = system: Serratia marcescens IO 83-63; details: IO8363, 18 hours, 35° C.
Procedure, shortened: as §1

[6] = system: Streptococcus faecalis VGH 84-69; details: Enterococcus faecalis, VGH8469, 18 h, 35° C., read-out: MIC
Procedure, shortened: as §1

[7] = system: Staphylococcus aureus K 82-26; details: Staphylococcus aureus, K8226, 18 h, 35° C., read-out: MIC
Procedure, shortened: as §1

[8] = system: Providencia stuarti CMC 83-3; details: Providencia, CMC833, 18 h, 35° C., read-out: MIC
Procedure, shortened: as §1

[9] = system: Staphylococcus aureus ATTC 29213; details: 35° C.
Procedure, shortened: as §1

[10] = system: Serratia marcescens K 84-18; details: Serratia marcescens, K8418, 18 h, 35° C., read-out: MIC
Procedure, shortened: as §1

[11] = system: Enterobacter cloacae K 84-10; details: Enterobacter cloacae, K8410, 18 h, 35° C., read-out: MIC
Procedure, shortened: as §1

[12] = system: Staphylococcus aureus VGH 84-47; details: Staphylococcus aureus, VGH8447, 18 h, 35° C., read-out: MIC
Procedure, shortened: as §1

[13] = system: Pseudomonas aeruginosa VGH 84-4; details: 35° C.
Procedure, shortened: as §1

[14] = system: Pseudomonas aeruginosa LL-1244; details: Pseudomonas aeruginosa, LL1244, 18 h, 35° C., read-out: MIC
Procedure, shortened: as §1

[15] = system: Escherichia coli CMC 84-50; details: Escherichia coli, CMC8450, 18 h, 35° C., read-out: MIC
Procedure, shortened: as §1

[16] = system: Proteus rettgeri CMC 84-41; details: Providencia rettgeri, CMC8441, 18 h, 35° C., read-out: MIC
Procedure, shortened: as §1

[17] = system: Klebsiella pneumoniae MOR 84-24; details: Klebsiella pneumoniae, MOR8424, 18 h, 35° C., read-out: MIC
Procedure, shortened: as §1

[18] = system: Escherichia coli VGH 84-19; details: Escherichia coli, VGH8419, 18 h, 35° C., read-out: MIC
Procedure, shortened: as §1

[19] = system: Escherichia coli CMC 84-11; details: Escherichia coli, CMC8411, 18 h, 35° C., read-out: MIC
Procedure, shortened: as §1

[20] = system: Streptococcus faecalis UCI 85-30; details: Enterococcus faecalis, UCI8530, 18 h, 35° C., read-out: MIC
Procedure, shortened: as §1

Escherichia coli LL 311 = details: Escherichia coli, LL311, 18 h, 35° C., read-out: MIC
Procedure, shortened: as §1

[21] = system: Staphylococcus aureus CMC 83-131; details: Staphylococcus aureus, CMC83131, 18 h, 35° C., read-out: MIC
Procedure, shortened: as §1

[22] = system: Enterobacter cloacae MOR 84-30; details: 35° C.
Procedure, shortened: as §1

[23] = system: Escherichia coli MOR 84-20; details: Escherichia coli, MOR8420, 18 h, 35° C., read-out: MIC
Procedure, shortened: as §1

[24] = system: Pseudomonas aeruginosa K 84-16; details: Pseudomonas aeruginosa, K8416, 18 h, 35° C., read-out: MIC
Procedure, shortened: as §1

[25] = system: Staphylococcus aureus VGH 84-45; details: 35° C.
Procedure, shortened: as §1

[26] = system: Serratia marcescens MOR 84-41; details: Serratia marcescens, MOR8441, 18 h, 35° C., read-out: MIC
Procedure, shortened: as §1

[27] = system: Morganella morganii CMC 84-38; details: 35° C.
Procedure, shortened: as §1

[28] = system: Streptococcus faecalis UCI 85-19; details: Enterococcus faecalis, UCI8519, 18 h, 35° C., read-out: MIC
Procedure, shortened: as §1

[29] = system: Pseudomonas aeruginosa CMC 83-20; details: Pseudomonas aeruginosa, CMC8320, 18 h, 35° C., read-out: MIC
Procedure, shortened: as §1

[30] = system: Serratia marcescens VGH 84-30; details: Serratia marcescens, VGH8430, 18 h, 35° C., read-out: MIC
Procedure, shortened: as §1

[31] = system: Klebsiella pneumoniae CMC 84-31; details: Klebsiella pneumoniae, CMC8431, 18 h, 35° C., read-out: MIC
Procedure, shortened: as §1

[32] = Staphylococcus aureus, ATTC29213, 18 h, read-out: MIC
[33] = Pseudomonas aeruginosa, VGH844, 18 h, read-out: MIC
[34] = Staphylococcus aureus, VGH8445, 18 h, read-out: MIC
[35] = Morganella morganii, CMC8438, 18 h, read-out: MIC

SMILES	MIC [1] [µg/mL]	MIC [3] [µg/mL]	MIC [4] [µg/mL]	MIC [5] [µg/mL]	MIC [6] [µg/mL]	MIC [7] [µg/mL]	MIC [8] [µg/mL]	MIC [10] [µg/mL]	MIC [12] [µg/mL]	MIC [15] [µg/mL]	MIC [16] [µg/mL]	MIC [17] [µg/mL]	MIC [18] [µg/mL]	MIC [19] [µg/mL]	MIC [20] [µg/mL]	MIC [21] [µg/mL]	MIC [23] [µg/mL]	MIC [24] [µg/mL]	MIC [26] [µg/mL]	MIC [29] [µg/mL]	other results
CCn1cc(C(=O)O)c(=O)c2cc(F)c(N3CCN(C)C(c4ccn(C)n4)C3)cc21 (centres unmarked) [Example 109, 1-Ethyl-6-fluoro-1,4-dihydro-7-[4-methyl-3-(1-methyl-1H-pyrazol-3-yl) -1-piperazinyl]-4-oxo-3-quinolinecarboxylic acid]	> 16	> 16	> 16	> 16	> 16	> 16	> 16	32 (≈ 77.4 µM)	2 (≈ 4.84 µM)	> 16	32 (≈ 77.4 µM)	> 16	> 16	16 (≈ 38.7 µM)	> 16	2 (≈ 4.84 µM)	> 16	> 16	> 16	> 16	MIC [2]: 16 µg/mL (≈ 38.7 µM); MIC ([9]; 18 hours): 1 µg/mL (≈ 2.42 µM); MIC [9, 32]: 0.5 µg/mL (≈ 1.21 µM); MIC [11]: 16 µg/mL (≈ 38.7 µM); MIC [13, 33]: > 128 µg/mL; MIC [14]: > 128 µg/mL; MIC (Escherichia coli LL 311): 8 µg/mL (≈ 19.3 µM); MIC ([22]; Enterobacter cloacae, MOR8430, 18 h, read-out: MIC): > 16 µg/mL; MIC [25, 34]: 0.5 µg/mL (≈ 1.21 µM); MIC [27, 35]: > 16 µg/mL; MIC [28]: 16 µg/mL (≈ 38.7 µM); MIC [30]: > 128 µg/mL; MIC [31]: > 16 µg/mL
O=C(O)c1cn(C2CC2)c2cc(N3CCNC(CF)C3)c(F)cc2c1=O (centres unmarked) [Example 131, 1-Cyclopropyl-6-fluoro-7-[3-(fluoromethyl)-1-piperazinyl]-1,4-dihydro-4-oxo-3-quinolinecarboxylic acid]	0.12 (≈ 0.33 µM)	0.12 (≈ 0.33 µM)	0.12 (≈ 0.33 µM)	0.5 (≈ 1.38 µM)	1 (≈ 2.75 µM)	0.5 (≈ 1.38 µM)	16 (≈ 44 µM)	0.12 (≈ 0.33 µM)	0.25 (≈ 0.688 µM)	0.06 (≈ 0.165 µM)	0.06 (≈ 0.165 µM)	0.12 (≈ 0.33 µM)	0.03 (≈ 0.0826 µM)	0.015 (≈ 0.0413 µM)	2 (≈ 5.5 µM)	1 (≈ 2.75 µM)	0.03 (≈ 0.0826 µM)	1 (≈ 2.75 µM)	0.12 (≈ 0.33 µM)	1 (≈ 2.75 µM)	MIC [2]: 1 µg/mL (≈ 2.75 µM); MIC [9, 32]: 0.5 µg/mL (≈ 1.38 µM); MIC [11]: 0.03 µg/mL (≈ 0.0826 µM); MIC [13, 33]: 1 µg/mL (≈ 2.75 µM); MIC [14]: 2 µg/mL (≈ 5.5 µM); MIC (Escherichia coli LL 311): 0.015 µg/mL (≈ 0.0413 µM); MIC [25, 34]: 0.25 µg/mL (≈ 0.688 µM); MIC [27, 35]: 0.06 µg/mL (≈ 0.165 µM); MIC [28]: 2 µg/mL (≈ 5.5 µM); MIC [30]: 2 µg/mL (≈ 5.5 µM); MIC [31]: 0.06 µg/mL (≈ 0.165 µM)
O=C(O)c1cn(C2CC2)c2cc(N3CCNC(c4ccco4)C3)c(F)cc2c1=O (centres unmarked) [Example 62, 1-Cyclopropyl-6-fluoro-7-[3-(2-furanvl)-1-piperazinyl]-1,4-dihydro-4-oxo-3-quinolinecarboxylic acid]	0.25 (≈ 0.629 µM)	0.25 (≈ 0.629 µM)	0.12 (≈ 0.302 µM)	1 (≈ 2.52 µM)	0.5 (≈ 1.26 µM)	0.06 (≈ 0.151 µM)	16 (≈ 40.3 µM)	0.25 (≈ 0.629 µM)	0.03 (≈ 0.0755 µM)	0.12 (≈ 0.302 µM)	0.06 (≈ 0.151 µM)	0.25 (≈ 0.629 µM)	0.06 (≈ 0.151 µM)	0.03 (≈ 0.0755 µM)	1 (≈ 2.52 µM)	0.25 (≈ 0.629 µM)	0.06 (≈ 0.151 µM)	8 (≈ 20.1 µM)	0.5 (≈ 1.26 µM)	8 (≈ 20.1 µM)	MIC ([13]; 18 hours): 1 µg/mL (≈ 2.52 µM); MIC ([22]; 18 hours): 1 µg/mL (≈ 2.52 µM); MIC ([25]; 18 hours): 0.015 µg/mL (≈ 0.0377 µM); MIC ([27]; 18 hours): 0.25 µg/mL (≈ 0.629 µM); MIC [31]: 0.12 µg/mL (≈ 0.302 µM)
